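Five concentrations, 48 hours, 96-well plates. Here, GI50 denotes the concentration required for 50% inhibition of growth.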 Activity calls are given as the source filed them. Cut-off read from the data, not from the text of the source: active = GI50 up to about 1.1 µM and inactive = higher.
Legend:
Assay in all cases: inhibition of tumour cell growth, NCI panel, 48 h
K562 = test system: K562
SK-MEL-5 = test system: SK-MEL-5
HCT-116 = test system: HCT-116
SF-539 = test system: SF-539
NCI-H23 = test system: NCI-H23
SW-620 = test system: SW-620
M14 = test system: M14
UACC-257 = test system: UACC-257
Malme-3M = test system: Malme-3M
RXF 393 = test system: RXF 393
SF-295 = test system: SF-295
MCF7 = test system: MCF7
SK-MEL-28 = test system: SK-MEL-28
IGROV-1 = test system: IGROV-1
NCI-H522 = test system: NCI-H522
CCRF-CEM = test system: CCRF-CEM
TK-10 = test system: TK-10
PC-3 = test system: PC-3
SR = test system: SR
UO-31 = test system: UO-31

Measured: GI50

Cc1cc2c(cc1C)[n+]([O-])c(C(=O)N1CCN(c3ccc([N+](=O)[O-])cc3)CC1)c(C)[n+]2[O-]
inactive: K562 > 100 µM | SK-MEL-5 74.6 µM | HCT-116 28.9 µM | SF-539 17.7 µM | NCI-H23 26.5 µM | SW-620 > 100 µM | M14 32.5 µM | UACC-257 > 100 µM | Malme-3M > 100 µM | RXF 393 14.4 µM | SF-295 16.1 µM | MCF7 > 100 µM | SK-MEL-28 > 100 µM | IGROV-1 27.6 µM | NCI-H522 75.3 µM | CCRF-CEM > 100 µM | TK-10 18.1 µM | PC-3 93.3 µM | SR > 100 µM | UO-31 28.5 µM

O=c1c2cc([N+](=O)[O-])ccc2nc2n1CCCCC2
inactive: K562 > 100 µM | SK-MEL-5 > 100 µM | HCT-116 > 100 µM | SF-539 > 100 µM | NCI-H23 > 100 µM | SW-620 > 100 µM | M14 > 100 µM | UACC-257 > 100 µM | Malme-3M > 100 µM | RXF 393 > 100 µM | SF-295 > 100 µM | MCF7 > 100 µM | SK-MEL-28 > 100 µM | IGROV-1 > 100 µM | NCI-H522 > 100 µM | CCRF-CEM 21.5 µM | TK-10 > 100 µM | PC-3 89.3 µM | SR > 100 µM | UO-31 > 100 µM

NS(=O)(=O)c1ccc(NNc2c3ccccc3nc3c(C(=O)Nc4ccc(S(N)(=O)=O)cc4)cccc23)cc1
inactive: K562 21.2 µM | SK-MEL-5 34.9 µM | HCT-116 22.1 µM | SF-539 25.7 µM | NCI-H23 28.8 µM | SW-620 15.3 µM | M14 55.3 µM | UACC-257 98.4 µM | Malme-3M 23.8 µM | RXF 393 6.73 µM | SF-295 37.7 µM | MCF7 12.9 µM | SK-MEL-28 48.6 µM | IGROV-1 19.3 µM | NCI-H522 15.2 µM | CCRF-CEM 14.5 µM | TK-10 > 100 µM | PC-3 30.2 µM | SR 9.42 µM | UO-31 63 µM
